The text below walks through data of patent US6890942B2, “Acyl sulfonamides as inhibitors of HIV integrase” (Bristol-Myers Squibb Company, priority 2003, dated 2005).

The target in one series is T1, HIV-integrase (Human immunodeficiency virus type 1 group M subtype B, UniProt P04585).
T1 construct: 0.26 ng of recombinant integrase was incubated with the beads
Put plainly: HIV-Integrase Inhibition Activity (SPA bead strand-transfer assay). It counts as biochemical. The conditions noted are these: 10 μM compound; recombinant integrase. As to the method: For each reaction, 5 pmole of biotin labeled substrate DNA was bound to 100 ug of Streptavidin coated PVT SPA beads (Amersham Pharmacia Biotech). 0.26 ng of recombinant integrase was incubated with the beads for 90 min at 37 C. Unbound enzyme was removed by washing the complex followed by addition of inhibitors and 0.1 fmol of P33 labeled target DNA. Reaction was stopped by adding EDTA to a final concentration of 10 mM. Samples were counted in TopCountNXT (Packard) and the CPM was used as a measure of integration. Reaction condition was as described in A. Engelman and R. Craigie, J. Virol. 69, 5908-5911 (1995). The sequences of substrate and target DNA were described in Nucleic Acid Research 22, 1121-1122 (1994). Compounds of this invention tested in this assay have IC50's of approximately 0.01 to 25 μM.
With `CON(Cc1ccc(F)cc1)C(=O)/C=C(\O)C(=O)NS(=O)(=O)c1ccc(C)cc1` [Example 1, 3-Hydroxy-4-oxo-4-(toluene-4-sulfonylamino)-but-2-enoic acid (4-fluoro-benzyl)-methoxy-amide], the inhibition (commonly the share of the control response that was lost under treatment) at 10 µM stood at 99%.
For `CON(Cc1ccc(F)cc1)C(=O)/C=C(\O)C(=O)NS(C)(=O)=O` [Example 2, 3-Hydroxy-4-methanesulfonylamino-4-oxo-but-2-enoic acid (4-fluoro-benzyl)-methoxy-amide], the inhibition at 10 µM was found to be 99%.
Regarding `CON(Cc1ccc(F)cc1)C(=O)/C=C(\O)C(=O)NS(=O)(=O)c1nnc(NC(C)=O)s1` [Example 3, 4-(5-Acetylamino-[1,3,4]thiadiazole-2-sulfonylamino)-3-hydroxy-4-oxo-but-2-enoic acid (4-fluoro-benzyl)-methoxy-amide], the inhibition at 10 µM was determined as 99%.
Turning to `CON(Cc1ccc(F)cc1)C(=O)/C=C(\O)C(=O)NS(=O)(=O)CC1CCC1` [Example 4, 4-Cyclobutylmethanesulfonylamino-3-hydroxy4-oxo-but-2-enoic acid (4-fluoro-benzyl)-methoxy-amide], the inhibition at 10 µM turned out to be 99%.
Same read-out and setting: next, `CON(Cc1ccc(F)cc1)C(=O)/C=C(\O)C(=O)NS(=O)(=O)C1CCCCC1` [Example 5, 4-Cyclohexanesulfonylamino-3-hydroxy-4-oxo-but-2-enoic acid (4-fluoro-benzyl)-methoxy-amide]: 99%; `CON(Cc1ccc(F)cc1)C(=O)/C=C(\O)C(=O)NS(=O)(=O)C1CCCC1` [Example 6, 4-Cyclopentanesulfonylamino-3-hydroxy-4-oxo-but-2-enoic acid (4-fluoro-benzyl)-methoxy-amide]: 99%.
For `CON(Cc1ccc(F)cc1)C(=O)/C=C(\O)C(=O)NS(=O)(=O)C1CC1` [Example 7, 4-Cyclopropanesulfonylamino-3-hydroxy-4-oxo-but-2-enoic acid (4-fluoro-benzyl)-methoxy-amide], the inhibition at 10 µM is 99%.
On to `CON(Cc1ccc(F)cc1)C(=O)/C=C(\O)C(=O)NS(=O)(=O)c1c(C)noc1C` [Example 8, 4-(3,5-Dimethyl-isoxazole-4-sulfonylamino)-3-hydroxy-4-oxo-but-2-enoic acid (4-fluoro-benzyl)-methoxy-amide], for which the inhibition at 10 µM was 99%.
On the same count and under the same terms, next, `CON(Cc1ccc(F)cc1)C(=O)/C=C(\O)C(=O)NS(=O)(=O)c1cccc(C)n1` [Example 9, 3-Hydroxy-4-(6-methyl-pyridine-2-sulfonylamino)-4-oxo-but-2-enoic acid (4-fluoro-benzyl)-methoxy-amide]: 94%; `CON(Cc1ccc(F)cc1)C(=O)/C=C(\O)C(=O)NS(=O)(=O)c1ccc(Cl)s1` [Example 10, 4-(5-Chloro-thiophene-2-sulfonylamino)-3-hydroxy-4-oxo-but-2-enoic acid (4-fluoro-benzyl)-methoxy-amide]: 95%.
With `CON(Cc1ccc(F)cc1)C(=O)/C=C(\O)C(=O)NS(=O)(=O)c1ccc(NC(C)=O)cc1` [Example 11, 4-(4-Acetylamino-benzenesulfonylamino)-3-hydroxy-4-oxo-but-2-enoic acid (4-fluoro-benzyl)-methoxy-amide], the inhibition at 10 µM was 99%.
Still for that read-out and setting: next, `CCOc1ccc2nc(S(=O)(=O)NC(=O)C(O)=CC(=O)N(Cc3ccc(F)cc3)OC)sc2c1` [Example 12, 4-(6-Ethoxy-benzothiazole-2-sulfonylamino)-3-hydroxy-4-oxo-but-2-enoic acid (4-fluoro-benzyl)-methoxy-amide]: 99%.
Still for that read-out and setting: next, `CON(Cc1ccc(F)cc1)C(=O)/C=C(\O)C(=O)NS(=O)(=O)c1sc(C)nc1C` [Example 13, 4-(2,4-Dimethyl-thiazole-5-sulfonylamino)-3-hydroxy-4-oxo-but-2-enoic acid (4-fluoro-benzyl)-methoxy-amide]: 98%; `CON(Cc1ccc(F)cc1)C(=O)/C=C(\O)C(=O)NS(=O)(=O)c1cn(C)cn1` [Example 14, 3-Hydroxy-4-(1-methyl-1H-imidazole-4-sulfonylamino)-4-oxo-but-2-enoic acid (4-fluoro-benzyl)-methoxy-amide]: 93%; `CCN1CCCC1CNC(=O)c1cc(S(=O)(=O)NC(=O)/C(O)=C/C(=O)N(Cc2ccc(F)cc2)OC)ccc1OC` (stereo not shown) [Example 15, N-(1-Ethyl-pyrrolidin-2-ylmethyl)-5-[3-[(4-fluoro-benzyl)-methoxy-carbamoyl]-2-hydroxy-acryloylsulfamoyl]-2-methoxy-benzamide]: 93%.
Still for that read-out and setting: next, `CON(Cc1ccc(F)cc1)C(=O)/C=C(\O)C(=O)NS(=O)(=O)C1CCS(=O)(=O)C1` (stereo not shown) [Example 16, 4-(1,1-Dioxo-tetrahydro-1×6-thiophene-3-sulfonylamino)-3-hydroxy-4-oxo-but-2-enoic acid (4-fluoro-benzyl)-methoxy-amide]: 98%; `CON(Cc1ccc(F)cc1)C(=O)/C=C(\O)C(=O)NS(=O)(=O)c1ccc(-c2cc(C(F)(F)F)n(C)n2)s1` [Example 17, 3-Hydroxy-4-[5-(1-methyl-5-trifluoromethyl-1H-pyrazol-3-yl)-thiophene-2-sulfonylamino]-4-oxo-but-2-enoic acid (4-fluoro-benzyl)-methoxy-amide]: 99%.
For the molecule `CCCC1(S(=O)(=O)NC(=O)/C(O)=C/C(=O)N(Cc2ccc(F)cc2)OC)CC1` [Example 18, 3-Hydroxy-4-oxo-4-(1-propyl-cyclopropanesulfonylamino)-but-2-enoic acid (4-fluoro-benzyl)-methoxy-amide], the inhibition at 10 µM amounted to 99%.
Same read-out and setting: next, `CON(Cc1ccc(F)cc1)C(=O)/C=C(\O)C(=O)NS(=O)(=O)C1(CC2CC2)CC1` [Example 19, 4-(1-Cyclopropylmethyl-cyclopropanesulfonylamino)-3-hydroxy-4-oxo-but-2-enoic acid (4-fluoro-benzyl)-methoxy-amide]: 99%.
Still for that read-out and setting: next, `CON(Cc1ccc(F)cc1)C(=O)/C=C(\O)C(=O)NS(=O)(=O)C1(Cc2ccccc2)CC1` [Example 20, 4-(1-Benzyl-cyclopropanesulfonylamino)-3-hydroxy-4-oxo-but-2-enoic acid (4-fluoro-benzyl)-methoxy-amide]: 99%; `CON(Cc1ccc(C(=O)O)cc1)C(=O)/C=C(\O)C(=O)NS(C)(=O)=O` [Example 21, 4-{[(3-Hydroxy-4-methanesulfonylamino-4-oxo-but-2-enoyl)-methoxy-amino]-methyl}-benzoic acid]: 30%.
The same measure, in the same setting: next, `CON(Cc1ccc(F)c(C)c1)C(=O)/C=C(\O)C(=O)NS(C)(=O)=O` [Example 22, 3-Hydroxy-4-methanesulfonylamino-4-oxo-but-2-enoic acid (4-fluoro-3-methyl-benzyl)-methoxy-amide]: 99%.
`CON(Cc1ccccc1OC(C)C)C(=O)/C=C(\O)C(=O)NS(C)(=O)=O` [Example 23, 3-Hydroxy-4-methanesulfonylamino-4-oxo-but-2-enoic acid (2-isopropoxy-benzyl)-methoxy-amide]: the inhibition at 10 µM was determined as 99%.
On to `CON(Cc1ccc(C(=O)OC(C)(C)C)cc1)C(=O)/C=C(\O)C(=O)NS(C)(=O)=O` [Example 24, 4-{[(3-Hydroxy-4-methanesulfonylamino-4-oxo-but-2-enoyl)-methoxy-amino]-methyl}-benzoic acid tert-butyl ester], for which the inhibition at 10 µM worked out at 15%.
Same read-out and setting: next, `CON(Cc1ccc(C)c(F)c1)C(=O)/C=C(\O)C(=O)NS(C)(=O)=O` [Example 25, 3-Hydroxy-4-methanesulfonylamino-4-oxo-but-2-enoic acid (3-fluoro-4-methyl-benzyl)-methoxy-amide]: 99%; `CON(C(=O)/C=C(\O)C(=O)NS(C)(=O)=O)C(C)c1ccc(F)cc1` (stereo not shown) [Example 26, 3-Hydroxy-4-methanesulfonylamino-4-oxo-but-2-enoic acid[1-(4-fluoro-phenyl)-ethyl]-methoxy-amide]: 99%; `CON(C(=O)/C=C(\O)C(=O)NS(C)(=O)=O)C(c1ccc(F)cc1)c1ccc(F)cc1` [Example 27, 3-Hydroxy-4-methanesulfonylamino-4-oxo-but-2-enoic acid [bis-(4-fluoro-phenyl)-methyl]-methoxy-amide]: 60%.
On the same count and under the same terms, next, `CON(Cc1ccc(F)cc1Cl)C(=O)/C=C(\O)C(=O)NS(C)(=O)=O` [Example 28, 3-Hydroxy-4-methanesulfonylamino-4-oxo-but-2-enoic acid (2-chloro-4-fluoro-benzyl)-methoxy-amide]: 99%; `CN(C(=O)/C=C(\O)C(=O)NS(C)(=O)=O)C(Cc1ccc(Cl)cc1)Cc1ccc(Cl)cc1` [Example 29, 3-Hydroxy-4-methanesulfonylamino-4-oxo-but-2-enoic acid [1-(4-chloro-benzyl)-2-(4-chloro-phenyl)-ethyl]-methyl-amide]: 86%.
On the same count and under the same terms, next, `CON(CCCc1ccc(F)cc1)C(=O)/C=C(\O)C(=O)NS(C)(=O)=O` [Example 30, 3-Hydroxy-4-methanesulfonylamino-4-oxo-but-2-enoic acid [3-(4-fluoro-phenyl)-propyl]-methoxy-amide]: 98%.

Test system in another series: not given
Test: not given
Conditions: not given
In the case of `CON(Cc1ccc(F)cc1)C(=O)/C=C(\O)C(=O)NS(C)(=O)=O` [Example 2, 3-Hydroxy-4-methanesulfonylamino-4-oxo-but-2-enoic acid (4-fluoro-benzyl)-methoxy-amide], the melting point (in general, the temperature, or range, at which the solid turns liquid) is 137 °C (dec.).
`CON(Cc1ccc(C(=O)O)cc1)C(=O)/C=C(\O)C(=O)NS(C)(=O)=O` [Example 21, 4-{[(3-Hydroxy-4-methanesulfonylamino-4-oxo-but-2-enoyl)-methoxy-amino]-methyl}-benzoic acid] came in with a melting point of 119 to 124 °C.
For `CON(Cc1ccc(F)c(C)c1)C(=O)/C=C(\O)C(=O)NS(C)(=O)=O` [Example 22, 3-Hydroxy-4-methanesulfonylamino-4-oxo-but-2-enoic acid (4-fluoro-3-methyl-benzyl)-methoxy-amide], the melting point was 138 °C (dec.).
Take `CON(Cc1ccc(F)cc1Cl)C(=O)/C=C(\O)C(=O)NS(C)(=O)=O` [Example 28, 3-Hydroxy-4-methanesulfonylamino-4-oxo-but-2-enoic acid (2-chloro-4-fluoro-benzyl)-methoxy-amide]: the melting point was 144 °C (dec.).
